Consider 10 compounds from US4962155A (City of Hope, priority 1987, dated 1990).

Read-outs that look alike come from different tables or passages of the source.

One series deals with insulin receptor kinase. To be noted: literature, cited from earlier work.
Series [1] has as its target T1, human insulin receptor kinase (Homo sapiens, UniProt P06213).
T1 construct: from tissue; host or cells: human placenta (Triton X-100 solubilized membranes; wheat germ agglutinin and insulin-Sepharose chromatography)
Put plainly: Kinase assay: phosphorylation of exogenous src-related peptide by purified insulin receptor. Format: biochemical. To be noted: for activation of the insulin receptor kinase over the control: 1 μM basic protein or polyamine, preincubated 25° C. 1 hour, FIG. 1; for concentrations at which kinase activity is stimulated: dose response; for reactivation of receptor preparations that lost kinase activity or insulin dependency: aged preparations stored at -70° C. As for the experimental part:
The substrate used is a synthetic peptide (src-related peptide) which resembles the amino acid sequence around the site of phosphorylation of the tyrosine residue in the Rous sarcoma virus transforming protein, pp60^src, with the sequence ([…], Casnellie, J. E., et al., Proc. Natl. Acad. Sci. USA 79:282 (1982).
The phosphorylation assays were carried out at 25° C. for 40 minutes in 30 ul of 50 mM Tris-HCl buffer (pH 7.4) containing 1 mM of the src-related peptide, 2 mM MnCl2, 15 mM MgCl2, 0.1% Triton X-100, and 40 μM [γ-^32 ]ATP (12,000 cpm/pmole). The reaction was terminated by adding 50 μl of 5% trichloroacetic acid (TCA) and 20 μl of bovine serum albumin (BSA) (10 mg/ml), the resulting solution was then incubated at 0° C. for 30 minutes, and the proteins were precipitated by centrifugation. Aliquots (35 μl) of the resulting supernatant were spotted on phosphocellulose paper (Whatman, P-81). The papers were extensively washed in 75 mM phosphoric acid. Duplicates of the papers were prepared from each reaction mixture and ^32 P incorporated into the src-related peptide was counted using a liquid scintillation counter.

Series [2] relates to β subunit of the insulin receptor and calmodulin. The note with it: rat hepatocyte insulin receptor preparations, absence of insulin; literature; cited from earlier work.
Series [3] deals with T2, insulin receptor β subunit (Homo sapiens, UniProt P06213).
T2 construct: from tissue; host or cells: human placenta (Triton X-100 solubilized membranes; wheat germ agglutinin and insulin-Sepharose chromatography)
Put plainly: Phosphorylation (autophosphorylation) of insulin receptor subunits, SDS-PAGE and autoradiography. In kind it is biochemical. As for the experimental part:
The β subunit of the purified receptor was phosphorylated in the same manner as described above for the exogenous substrate phosphorylation. The reaction was terminated by adding 3-times concentrated Laemmli's sample buffer followed by boiling for 5 minutes. SDS-polyacrylamide gel electrophoresis was then performed under reducing conditions as described by Laemmli, U. K., Nature 227:680 (1970). The gels were stained with silver, dried, and autoradiographed.
After the kinase reaction was terminated by adding TCA and BSA as described in the above procedures, the proteins containing the insulin receptor were precipitated by centrifugation. The precipitated proteins were then subjected to SDS polyacrylamide gel electrophoresis (7.5% gel) under reducing conditions. The gels were stained with silver, dried, and autoradiographed for 30 hours using a Kodak XAR-5 film and an intensifying screen.
The insulin receptor was then phosphorylated according to the procedures described above. After the phosphorylation, the receptors were analyzed by SDS polyacrylamide gel electrophoresis (10% gel) under non-reducing conditions. The gel was dried and autoradiographed for 45 minutes at -70° C. by exposing the gel to a Kodak XAR-5 film with an intensifying screen.

Series [4] deals with T3, β and α subunits of the insulin receptor (Homo sapiens, UniProt P06213).
T3 construct: from tissue; host or cells: human placenta (Triton X-100 solubilized membranes; wheat germ agglutinin and insulin-Sepharose chromatography)
The series can be described thus: Phosphoamino acid analysis of phosphorylated β and α subunits by paper electrophoresis. In kind it is biochemical. As for the experimental part: Chem 254:1206 (1984), and hydrolyzing the peptides in 2N HCl for 2 hours at 110° C. The materials were then analyzed by paper electrophoresis (pH 3.5, 2000 V, 1 hour) and autoradiography.
Lanes 1-4 of FIG. 4B contain amounts of hydrolysates equal to 50% of the starting materials from the FIG. 4A gel. […] Other radioactive samples were electrophoresed together with these three phosphoamino acids. Ninhydrin spots for those are not shown. X indicates the origin of the samples.

As to concanavalin A, in the series on insulin receptor kinase, the “activation of the insulin receptor kinase” value is recorded as “activate the insulin receptor kinase”.
poly L-arginine: in series [1] (all concentrations examined, FIG. 2), the “effect on kinase activity in dose response” value is “inhibited the kinase activity of the receptor at any of the concentrations examined”. Further, the “stimulation of phosphorylation of the β subunit of the insulin receptor (and calmodulin)” value (“stimulation … (and calmodulin)” below) in series [2] was “effective to stimulate the phosphorylation of the β subunit of the insulin receptor”.
poly L-ornithine: the “activation of the insulin receptor kinase over the control” value in series [1] is “approximately 4 fold”. The “concentrations at which kinase activity is stimulated” value in series [1] (FIG. 2) lay within 0.1 to 1.0 µM. Moreover, in series [2], the “stimulation … (and calmodulin)” value is given as “effective to stimulate the phosphorylation of the β subunit of the insulin receptor”.
Regarding insulin, in the series on insulin receptor kinase, the “activation of the insulin receptor kinase” value is given as “activate the insulin receptor kinase”.
On to histone Hf2b [reference compound], for which the “stimulation … (and calmodulin)” value in series [2] was “appeared to stimulate the phosphorylation of both the β subunit of the insulin receptor and calmodulin”.
For the compound `OO` [H2 O2, hydrogen peroxide], the “activation of the insulin receptor kinase” value in the series with insulin receptor kinase was “activate the insulin receptor kinase”.
protamine sulfate: in series [1] (10 μM, FIG. 2), the “stimulatory effect on kinase activity relative to basal” value is “approximately two-fold”. The “stimulation … (and calmodulin)” value in series [2] is “appeared to stimulate the phosphorylation of both the β subunit of the insulin receptor and calmodulin”.
As for poly L-lysine, in series [3] (0.25 μM poly L-lysine, non-reducing SDS-PAGE, FIG. 4A lane 3), the “phosphorylation of insulin receptor subunits” value is “stimulates phosphorylation of α and β1 subunits in addition to the β subunit”. The “stimulation of β subunit autophosphorylation compared with insulin” value in series [3] (0.001-10 μM poly L-lysine, with or without 1 μM insulin, FIG. 3B) is “greater than that of insulin”. In addition, the “kinetic analysis (Vmax, KM), Lineweaver-Burk plots” value in series [1] (0.24 μM poly L-lysine, varying src-related peptide, FIGS. 6B, 6C) is reported as “increasing Vmax without significantly changing KM”. For the same compound, the “activation of the insulin receptor kinase over the control” value in series [1] is “approximately 5 fold”. In addition, the “stimulative effect on kinase activity” value in series [1] (100 μM poly L-lysine, FIG. 3A) is “can no longer be seen”. For the same compound, the “reactivation of receptor preparations that lost kinase activity or insulin dependency” value in series [1] is “can activate certain old insulin receptor preparations”; in series [1] (listed as Poly L-lysine) it was “able to restore the kinase activity of insulin receptor preparation that have lost some, but not all, kinase activity”. The “concentrations at which kinase activity is stimulated” value in series [1] (FIG. 2) was in the range of 0.1 to 1.0 µM. In addition, the “kinase activation compared with activation by insulin” value in series [1] (optimum poly L-lysine concentrations vs 1 μM insulin, FIG. 3A) is given as “much greater than the kinase activation by insulin”. Also, the “Kinase activity” value in series [1] (preincubation with 0.24 μM PLL) is reported as 0.234 pmol/min; in series [1] (receptor preparation A, stored 36 Mo. at -70° C., 1 μM insulin or 0.24 μM poly L-lysine), 0.002 pmol/min; in series [1] (receptor preparation B, stored 28 Mo. at -70° C., 1 μM insulin or 0.24 μM poly L-lysine), 0.174 pmol/min; in series [1] (receptor preparation C, stored 15 Mo. at -70° C., 1 μM insulin or 0.24 μM poly L-lysine), 0.229 pmol/min; in series [1] (receptor preparation D, stored 3 Mo. at -70° C., 1 μM insulin or 0.24 μM poly L-lysine) it was 2.30 pmol/min; in series [1] (receptor preparation E, stored <3 Days, 1 μM insulin or 0.24 μM poly L-lysine) it was 1.13 pmol/min. In series [1] (preincubation with 0.24 μM PLL, relative to no addition), the “Kinase Activity -fold” value amounted to 39 fold. Also, in series [1] (receptor preparations older than 36 months (data not shown)), the “kinase activity after poly L-lysine treatment” value was “no kinase activity”. For the same compound, the “β subunit phosphorylation, radioactivity of hydrolysate” value in series [4] (0.25 μM poly L-lysine, 20% of the original material, FIG. 4B lane 6) was found to be 1700 cpm; in series [4] (1 μM insulin or 0.25 μM poly L-lysine, hydrolysate equal to 50% of starting material, FIG. 4B) it was 4400 cpm. In addition, the “α subunit phosphorylation, radioactivity of hydrolysate” value in series [4] (0.25 μM poly L-lysine, hydrolysate equal to 50% of starting material, FIG. 4B lane 4) is recorded as 1000 cpm. For the same compound, the “phosphoamino acid composition of phosphorylated β and α subunits” value in series [4] (FIG. 4B) is “tyrosine was found to be a major amino acid whose phosphorylation was stimulated”. Also, in series [2], the “stimulation … (and calmodulin)” value was “appeared to stimulate the phosphorylation of both the β subunit of the insulin receptor and calmodulin”.
With `O[C@H](CS)[C@H](O)CS` (racemic) [DTT, dithiothreitol, reference compound], the “Kinase activity” value is recorded as 0.059 pmol/min in series [1] (preincubation with 0.1 mM DTT) and 0.083 pmol/min in series [1] (preincubation with 0.5 mM DTT). The fold induction at 100 µM in series [1] (read-out: Kinase Activity -fold, preincubation with 0.1 mM DTT, relative to no addition) was found to be 9.8. Also, the fold induction at 500 µM in series [1] (read-out: Kinase Activity -fold, preincubation with 0.5 mM DTT, relative to no addition) is 13.8. The “activation of the insulin receptor kinase” value in the series with insulin receptor kinase was “activate the insulin receptor kinase”; in the series with insulin receptor kinase (listed as dithiothreitol (DTT)), “activates the insulin receptor kinase”.
In the case of `[Na+].[Na+].[Na+].[O]=[V]([O-])([O-])[O-]` [vanadate, sodium orthovanadate], the “activation of the insulin receptor kinase” value in the series on insulin receptor kinase is “activate the insulin receptor kinase”.
